Assay results taken from the NIST ThermoML archive (doi:10.1021/je800586u).

Settings: Crystal

C1CSCCS1 [1,4-dithiacyclohexane]
vapor or sublimation pressure [kPa]
Settings | 296.65 K | 355.75 K | 359.45 K | 362.35 K | 367.35 K | 370.65 K | 374.05 K | 374.25 K | 376.95 K
Rate of evaporation | – | 1.067 | 1.333 | 1.893 | 2.653 | 3.246 | 3.826 | 3.906 | 4.626
Transpiration method | 0.00918 | – | – | – | – | – | – | – | –
